Measured values as given in article PMC8453848, “Effect of GLPG1205, a GPR84 Modulator, on CYP2C9, CYP2C19, and CYP1A2 Enzymes: In Vitro and Phase 1 Studies” (Clinical Pharmacology in Drug Development, 2021).
Values after ≈ are worked out from the molar mass of the structure shown. Values joined by “and” are separate entries in the source; they are usually repeats but may differ in a detail not shown here. Equal values may be shown once. Read-outs that look alike come from different tables or passages of the source.

What was measured:
[1] = target: CYP2C9 (Homo sapiens, UniProt P11712); test: CYP2C9 inhibition, tolbutamide methylhydroxylase assay in human liver microsomes; type: in vitro ADME; design: from tissue; host or cells: in vivo, 14 healthy male subjects; details: for IC50: estimated
Chain of CYP2C9 (P11712 whole entry): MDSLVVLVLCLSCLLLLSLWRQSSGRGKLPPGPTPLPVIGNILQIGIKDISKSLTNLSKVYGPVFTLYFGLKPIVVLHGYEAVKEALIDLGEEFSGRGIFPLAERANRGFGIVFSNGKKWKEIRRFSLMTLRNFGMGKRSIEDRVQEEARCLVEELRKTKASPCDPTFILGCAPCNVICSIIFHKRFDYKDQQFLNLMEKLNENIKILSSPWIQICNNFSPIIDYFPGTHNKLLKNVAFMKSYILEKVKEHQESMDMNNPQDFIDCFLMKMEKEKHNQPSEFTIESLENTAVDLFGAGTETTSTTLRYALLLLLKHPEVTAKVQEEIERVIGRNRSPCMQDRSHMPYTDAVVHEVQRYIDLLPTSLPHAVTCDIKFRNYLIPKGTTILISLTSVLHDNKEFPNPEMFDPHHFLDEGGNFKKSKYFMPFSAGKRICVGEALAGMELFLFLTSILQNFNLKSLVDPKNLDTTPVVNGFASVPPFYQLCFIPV
Description: Inhibition of the biotransformation of CYP‐specific substrates by GLPG1205 was studied using human liver microsomes. Incubation was performed at 37°C with the following conditions: n = 3 for all assays; 0.1 M phosphate buffer (pH 7.4), the cofactor nicotinamide adenine dinucleotide phosphate (NADPH) incubated at 2 mM, the CYP‐specific substrate incubated at 1 nonsaturating concentration, and GLPG1205. Additional incubation was performed with (1) a 30‐minute preincubation step of GLPG1205 with microsomes before the addition of the cofactor NADPH and CYP substrate; and (2) a 30‐minute preincubation step of GLPG1205 with microsomes and the cofactor NADPH, before the addition of the CYP substrate. […] The CYP‐specific substrates were incubated per the above conditions at the following concentrations: tolbutamide, 200 μM, CYP2C9 substrate; S‐mephenytoin, 60 μM, CYP2C19 substrate; phenacetin, 40 μM, CYP1A2 substrate.
Further details of the assays used for each CYP substrate are reported in the Supplemental Methods. Metabolites of the CYP‐specific substrates (acetaminophen for CYP1A2, hydroxytolbutamide for CYP2C9, hydroxymephenytoin for CYP2C19) were quantified using LC‐MS/MS.
Enzymatic activity in the presence of GLPG1205 was expressed as a percentage of the control activity obtained with the vehicle only (ie, without GLPG1205 or reference inhibitor). Decreases in activity of less than 20% were not considered clinically relevant.
Protocol for CYP Inhibition of the biotransformation of CYP-specific substrates by GLPG1205 was studied using human liver microsomes.^7 Incubations were performed at 37°C with the following conditions: n = 3 for all assays; 0.1 M phosphate buffer pH 7.4; the cofactor β-nicotinamide adenine dinucleotide phosphate (NADPH) incubated at 2 mM; the CYP-specific substrate incubated at one non-saturating concentration; and GLPG1205. Additional incubations were performed with: 1) a 30-minute preincubation step of GLPG1205 with microsomes before addition of the cofactor NADPH and CYP substrate; and 2) a 30-minute preincubation step of GLPG1205 with microsomes and the cofactor NADPH, before addition of the CYP substrate.
The CYP-specific substrates were incubated at the following conditions: tolbutamide (200 µM; CYP2C9); S-mephenytoin (60 µM; CYP2C19); phenacetin (40 µM; CYP1A2).^8-10 Reference inhibitors (as detailed in the previous section) were incubated in parallel. […]
A 2-fold dilution in D9-OH-tolbutamide at 1 µM in water with 0.1% formic acid was applied to the supernatants and then analysis was performed by LC-MS/MS with chromatographic separation. […] The quantification of the metabolite, hydroxytolbutamide, was performed in MRM mode using the 287.1 to 89.2 transition. […]

[2] = cited from earlier work
[3] = test system: CYP3A4; design: method as in PMID 33960725, PMID 29780235; details: cortisol:6β‐hydroxycortisol ratio in urine; cited from earlier work
[4] = Test of solubility of GLPG1205 in culture medium for incubations; type: physicochemical; details: culture medium for incubation; final DMSO percentage 0.4%; read-out: limit of solubility in culture medium for incubations
Description: Solubility and cytotoxicity experiments were performed prior to incubation of GLPG1205 with cells.
Test of Solubility Prior to incubation of GLPG1205 with cells, a preliminary test of solubility was performed. Various stock solutions of GLPG1205 in dimethylsulfoxide (DMSO) were prepared. Different solutions were prepared by diluting the stock solutions in culture medium for incubation to obtain 100, 200, 250, 400 and 500 µM with different final percentages of solvent (maximum 0.5% DMSO, volume/volume [v/v]).

[5] = target: T1, CYP1A2 (Homo sapiens, UniProt P05177); test: CYP1A2 inhibition, phenacetin O-deethylase assay in human liver microsomes; type: in vitro ADME; design: from tissue; host or cells: in vivo, 14 healthy male subjects; details: for IC50: estimated
T1 sequence (P05177 1-516): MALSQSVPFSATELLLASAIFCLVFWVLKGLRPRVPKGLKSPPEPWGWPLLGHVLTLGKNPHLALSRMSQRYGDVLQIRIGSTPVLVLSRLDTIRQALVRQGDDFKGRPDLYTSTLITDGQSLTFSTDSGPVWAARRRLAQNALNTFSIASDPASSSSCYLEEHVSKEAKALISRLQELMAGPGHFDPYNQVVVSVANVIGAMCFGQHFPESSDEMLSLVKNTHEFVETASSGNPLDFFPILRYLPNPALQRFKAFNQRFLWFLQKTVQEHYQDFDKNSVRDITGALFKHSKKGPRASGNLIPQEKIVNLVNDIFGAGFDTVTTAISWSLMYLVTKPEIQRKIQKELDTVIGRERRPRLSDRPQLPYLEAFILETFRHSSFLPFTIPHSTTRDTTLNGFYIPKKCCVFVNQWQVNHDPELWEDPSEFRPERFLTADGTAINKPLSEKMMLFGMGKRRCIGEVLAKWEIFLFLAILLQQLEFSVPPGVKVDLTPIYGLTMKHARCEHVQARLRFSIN
Description: Inhibition of the biotransformation of CYP‐specific substrates by GLPG1205 was studied using human liver microsomes. Incubation was performed at 37°C with the following conditions: n = 3 for all assays; 0.1 M phosphate buffer (pH 7.4), the cofactor nicotinamide adenine dinucleotide phosphate (NADPH) incubated at 2 mM, the CYP‐specific substrate incubated at 1 nonsaturating concentration, and GLPG1205. Additional incubation was performed with (1) a 30‐minute preincubation step of GLPG1205 with microsomes before the addition of the cofactor NADPH and CYP substrate; and (2) a 30‐minute preincubation step of GLPG1205 with microsomes and the cofactor NADPH, before the addition of the CYP substrate. GLPG1205 was tested at 6 concentrations: 0.5, 1, 5, 10, 50, and 100 μM (0.19, 0.38, 1.89, 3.78, 18.9, and 37.8 μg/mL, respectively), for each condition. The CYP‐specific substrates were incubated per the above conditions at the following concentrations: tolbutamide, 200 μM, CYP2C9 substrate; S‐mephenytoin, 60 μM, CYP2C19 substrate; phenacetin, 40 μM, CYP1A2 substrate.
GLPG1205 was tested at 6 concentrations: 0.5, 1, 5, 10, 50 and 100 µM (0.19, 0.38, 1.89, 3.78, 18.9, 37.8 µg/mL, respectively).
The CYP-specific substrates were incubated at the following conditions: tolbutamide (200 µM; CYP2C9); S-mephenytoin (60 µM; CYP2C19); phenacetin (40 µM; CYP1A2).^8-10 Reference inhibitors (as detailed in the previous section) were incubated in parallel. For all assays, the following controls were incubated in parallel: 1) with CYP substrate, without microsomes, with NADPH, without inhibitor (to check for substrate stability); 2) with CYP substrate, with microsomes, without NADPH, without inhibitor (to check for non-NADPH-dependent metabolism of substrate); and 3) without substrate, with microsomes, with NADPH, with test compound or reference inhibitor (to check for potential analytical interference).
At the end of the incubation period, the reaction was stopped with the addition of 0.15 M phosphoric acid (300 µL); proteins were allowed to precipitate for a minimum of 1 hour at approximately 4°C. After centrifugation at 3200 g for 20 minutes at approximately + 4°C, supernatants were collected.

[6] = once‐daily oral dosing for 14 days

O=c1nc(OC[C@@H]2COCCO2)cc2n1CCc1cc(C#CC3CC3)ccc1-2 [GLPG1205, 9‐cyclopropylethynyl‐2‐[(S)‐1‐(1,4)dioxan‐2‐ylmethoxy]‐6,7‐dihydropyrimido[6,1‐a]isoquinolin‐4‐one]
inhibition of CYP2C9 in words ([1]; GLPG1205 50‐100 μM): moderate and reversible | IC50 ([1]; human liver microsomes, read-out: IC50 for inhibition of CYP2C9): ~50 µM and ≥ 50 µM | IC50 ([1]; equivalent of ≥50 μM, read-out: IC50 for inhibition of CYP2C9, equivalent): ≥ 49.9 µM | inhibition at 20 min ([1]; human, liver microsomes, pH 7.4, probe tolbutamide 200 µM, GLPG1205 50‐100 μM without preincubation, tolbutamide 200 μM): 49 to 56.9% | median time to maximum plasma concentration (tmax) ([2]; healthy male subjects): 4 h | maximum tolerated dose ([2]; healthy subjects): 100 mg once a day | Cmax ([2]; multiple doses of GLPG1205 100 mg once a day, steady state): 3910 ng/mL | day by which steady‐state plasma concentration was reached [2, 6]: ≤ 10 days | elimination half‐life, average [2, 6]: 88.6 h | CYP3A4 induction [3]: did not induce CYP3A4 | solubility at 24 h [4]: 100 µM (≈ 37.8 µg/mL) | inhibition of CYP1A2 in words ([5]; GLPG1205 50‐100 μM): Weak | IC50 ([5]; human liver microsomes, read-out: IC50 for inhibition of CYP1A2): ≥ 100 µM | IC50 ([5]; equivalent of ≥100 μM, read-out: IC50 for inhibition of CYP1A2, equivalent): ≥ 99.9 µM | inhibition at 7 min, 100 µM ([5]; human, liver microsomes, pH 7.4, probe phenacetin 40 µM, GLPG1205 100 μM following a 30‐minute preincubation with NADPH): 52.9% | inhibition at 7 min ([5]; human, liver microsomes, pH 7.4, probe phenacetin 40 µM, GLPG1205 50‐100 μM, phenacetin 40 μM): 20.4 to 38%
